{
  "source": "patent US20130288364A1",
  "about": "“ENGINEERED KINETOCHORES AND USES THEREOF” (Whitehead Institute for Biomedical Research, priority 2010, published 2013)",
  "system": "U2OS-LacO cells",
  "assay": "Interaction of LacI foci with spindle microtubules (foci shape)",
  "format": "cell-based, human",
  "details": "2 μM",
  "from_the_text": "We next sought to test the interaction of these foci with spindle microtubules. […] This deformation of the LacI foci could represent microtubules binding the structure to opposite spindle poles. In such a situation, tension across the region would result in a change in the shape of the chromatin. Consistent with microtubule interactions with the foci, the deformed shape of the GFP-CENP-T-ΔC-LacI focus was dependent on microtubules, as nocodazole treatment relaxed this to a circular morphology, with an average length to width ration of 1.15 (FIG. 6B). See also FIG. 8. Deformation of the GFP-CENP-T-ΔC-LacI focus was exacerbated by treatment with the Aurora B inhibitor ZM447439, which has been proposed to regulate both kinetochore-microtubule attachments (Cheeseman and Desai, 2008) and chromatinstructure (Lipp et al., 2007).\nImmunofluorescence in human cells was conducted as described previously (Kline et al., 2006). […]",
  "data": [
    {"smiles": "COc1cc2c(Nc3ccc(NC(=O)c4ccccc4)cc3)ncnc2cc1OCCCN1CCOCC1", "note": "[ZM447439]", "values": [
      {"measurement": "effect on deformation of the GFP-CENP-T-ΔC-LacI focus", "value": "exacerbated"}
    ]}
  ]
}
